Assay results: patent US11634412B2, “3-phosphoglycerate dehydrogenase inhibitors and uses thereof” (Raze Therapeutics, Inc., priority 2016, dated 2023)

Biological target: T1, Full length (FL) 3-Phosphoglycerate Dehydrogenase (PHGDH) (Homo sapiens, UniProt O43175)
T1 construct: Full length (FL) 3-Phosphoglycerate Dehydrogenase (PHGDH) Diaphorase coupled assay (500 uM NAD)
T1 sequence (O43175 1-533): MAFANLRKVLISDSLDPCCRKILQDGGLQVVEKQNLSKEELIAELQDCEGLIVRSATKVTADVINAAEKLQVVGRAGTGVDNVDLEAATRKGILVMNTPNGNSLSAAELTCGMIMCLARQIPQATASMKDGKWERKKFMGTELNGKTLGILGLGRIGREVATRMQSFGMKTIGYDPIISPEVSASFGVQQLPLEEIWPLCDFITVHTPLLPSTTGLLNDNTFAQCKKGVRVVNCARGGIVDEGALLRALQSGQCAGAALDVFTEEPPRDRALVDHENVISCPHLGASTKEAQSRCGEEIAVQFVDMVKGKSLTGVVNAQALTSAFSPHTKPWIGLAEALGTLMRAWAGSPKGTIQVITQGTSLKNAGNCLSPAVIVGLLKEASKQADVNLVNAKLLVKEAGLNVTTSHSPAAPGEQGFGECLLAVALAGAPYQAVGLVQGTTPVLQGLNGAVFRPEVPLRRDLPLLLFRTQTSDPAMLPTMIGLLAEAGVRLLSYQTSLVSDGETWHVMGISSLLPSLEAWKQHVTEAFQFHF
Assay: Full length (FL) PHGDH Diaphorase coupled assay (500 uM NAD)
Format: biochemical
Conditions: full-length PHGDH 5 nM, 30° C. 60 minutes, resorufin fluorescence
Protocol: Full length (FL) 3-Phosphoglycerate Dehydrogenase (PHGDH) Diaphorase coupled assay (500 uM NAD)
PHGDH activity was determined by detecting the NADH produced during the reaction. Diaphorase was used to catalyze the oxidation of NADH with the concomitant reduction of resazurin to the fluorescent product resorufin. Resorufin fluorescence quantitatively reflected the production of NADH by the PHGDH reaction. To drive the forward reaction, two enzymes in the serine synthesis pathway subsequent to PHGDH, Phosphoserine aminotransferase (PSAT1) and phosphoserine phosphatase (PSPH) were also added to the reaction.
Briefly, serial dilution of compounds were incubated in a volume of 20 μL in 384 well plates with the assay mixture containing 5 nM PHGDH, 500 nM PSAT1, 500 nM PSPH, 500 μM NAD^+, 80 uM 3-phosphoglycerate, 1 mM glutamate, 57 uM Resazurin and 0.2 mg/ml Diaphorase in assay buffer containing 50 mM Trisethanoloamine (TEA) pH8.0, 10 mM MgCl2, 0.01% Tween-20 and 0.05% Bovine Serum Albumin (BSA). The plate was then incubated at 30° C. for 60 minutes and resorufin fluorescence was measured at emission wavelength 598 nm following excitation at 525 nm. The positive control consisted of the complete reaction mixture with 4% DMSO and was set to 0% inhibition.

| IC50 | SMILES |
| --- | --- |
| 1 to 1000 nM | Cn1c(C(=O)NC2(c3ccc(C4(C(=O)O)CCOC4)cc3)COC2)cc2c(Cl)c(Cl)ccc21 (racemic) [I-2 e125] |
| 1 to 1000 nM | Cn1c(C(=O)NC2(c3ccc(C(CC4CC4)C(=O)O)cc3)COC2)cc2c(Cl)c(Cl)ccc21 (racemic) [I-3 e124] |
| 1 to 1000 nM | COc1cc2c(cc(C(=O)NC3(c4ccc(C(CC5CC5)C(=O)O)cc4)COC3)n2C)c(Cl)c1Cl (racemic) [I-4 e123] |
| 1 to 1000 nM | COc1cc2c(cc(C(=O)NC3(c4ccc(C(C(=O)O)C5CCC5)cc4)COC3)n2C)c(Cl)c1Cl (racemic) [I-7 e117] |
| 1 to 1000 nM | Cn1c(C(=O)NC2(c3ccc(C(C(=O)O)C4CCC4)cc3)COC2)cc2c(Cl)c(Cl)ccc21 (racemic) [I-8 e116] |
| 1 to 1000 nM | CC(C)CC(C(=O)O)c1ccc(C2(NC(=O)c3cc4c(Cl)c(Cl)ccc4n3C)COC2)cc1 (racemic) [I-9 e137, (±)-2-(4-(3-(4,5-Dichloro-1-methyl-1H-indole-2-carboxamido)oxetan-3-yl)phenyl)-4-methylpentanoic acid] |
| 1 to 1000 nM | Cn1c(C(=O)NC2(c3ccc(C(C(=O)O)C4CCC4)cc3)CCOC2)cc2c(Cl)c(Cl)ccc21 (racemic) [I-12 e86] |
| 1 to 1000 nM | COc1ccc2c(cc(C(=O)NC3(c4ccc(C(C(=O)O)C5CCC5)cc4)COC3)n2C)c1Cl (racemic) [I-13 e111] |
| 1 to 1000 nM | CCC(C(=O)O)c1ccc(C2(NC(=O)c3cc4c(Cl)c(Cl)c(OC)cc4n3C)COC2)cc1 (racemic) [I-14 e113] |
| 1 to 1000 nM | Cn1c(C(=O)NC2(c3ccc(C(C(=O)O)C4CC4)cc3)CCOC2)cc2c(Cl)c(Cl)ccc21 (racemic) [I-15 e162, (±)-2-Cyclopropyl-2-(4-(3-(4,5-dichloro-1-methyl-1H-indole-2-carboxamido)tetrahydrofuran-3-yl)phenyl)acetic acid] |
| 1 to 1000 nM | Cn1c(C(=O)NC2(c3ccc(C(C(=O)O)C4CCCC4)cc3)CCOC2)cc2c(Cl)c(Cl)ccc21 (racemic) [I-16 e87] |
| 1 to 1000 nM | CCCC(C(=O)O)c1ccc(C2(NC(=O)c3cc4c(Cl)c(Cl)c(OC)cc4n3C)CCOC2)cc1 (racemic) [I-17 e85] |
| 1 to 1000 nM | CCCC(C(=O)O)c1ccc(C2(NC(=O)c3cc4c(Cl)c(Cl)ccc4n3C)CCOC2)cc1 (racemic) [I-18 e84] |
| 1 to 1000 nM | CC(C)C(C(=O)O)c1ccc(C2(NC(=O)c3cc4c(Cl)c(Cl)ccc4n3C)CCOC2)cc1 (racemic) [I-19 e94] |
| 1 to 1000 nM | COc1cc2c(cc(C(=O)NC3(c4ccc(C(C(=O)O)C(C)C)cc4)CCOC3)n2C)c(Cl)c1Cl (racemic) [I-20 e83] |
| 1 to 1000 nM | COc1ccc2c(cc(C(=O)NC3(c4ccc(C(C(=O)O)C(C)C)cc4)COC3)n2C)c1Cl (racemic) [I-21 e127] |
| 1 to 1000 nM | COc1cc2c(cc(C(=O)NC3(c4ccc(C(C(=O)O)C5CCCC5)cc4)COC3)n2C)c(Cl)c1Cl (racemic) [I-22 e118] |
| 1 to 1000 nM | CCC(C(=O)O)c1ccc(C2(NC(=O)c3cc4c(Cl)c(Cl)c(OC)cc4n3C)CCOC2)cc1 (racemic) [I-23 e82] |
| 1 to 1000 nM | CCCC(C(=O)O)c1ccc(C2(NC(=O)c3cc4c(Cl)c(Cl)ccc4n3C)COC2)cc1 (racemic) [I-24 e114] |
| 1 to 1000 nM | Cn1c(C(=O)NC2(c3ccc(C(C(=O)O)C4CCCC4)cc3)COC2)cc2c(Cl)c(Cl)ccc21 (racemic) [I-25 e136, (±)-2-Cyclopentyl-2-[4-[3-[(4,5-dichloro-1-methyl-indole-2-carbonyl)amino]oxetan-3-yl]phenyl]acetic acid] |
| 1 to 1000 nM | COc1ccc2c(cc(C(=O)NC3(c4ccc(C(C(=O)O)C5CCCC5)cc4)COC3)n2C)c1Cl (racemic) [I-26 e130] |
| 1 to 1000 nM | COc1cc2c(cc(C(=O)NC3(c4ccc(C(C(=O)O)C(C)C)cc4)COC3)n2C)c(Cl)c1Cl (racemic) [I-29 e135, (±)-2-[4-[3-[(4,5-Dichloro-6-methoxy-1-methyl-indole-2-carbonyl)amino]oxetan-3-yl]phenyl]-3-methyl-butanoic acid] |
| 1 to 1000 nM | CC(C)C(C(=O)O)c1ccc(C2(NC(=O)c3cc4c(Cl)c(Cl)ccc4n3C)COC2)cc1 (racemic) [I-30 e134] |
| 1 to 1000 nM | CCCC(C(=O)O)c1ccc(C2(NC(=O)c3cc4c(Cl)c(OC)ccc4n3C)COC2)cc1 (racemic) [I-31 e112] |
| 1 to 1000 nM | CCCC(C(=O)O)c1ccc(C2(NC(=O)c3cc4c(Cl)c(Cl)c(OC)cc4n3C)COC2)cc1 (racemic) [I-38 e115] |
| 1 to 1000 nM | COc1ccc2c(cc(C(=O)NC3(c4ccc(C(C)(C)C(=O)O)cc4F)CCOC3)n2C)c1Cl (racemic) [I-39 e81] |

| IC50 | SMILES |
| --- | --- |
| 1 to 1000 nM | COc1ccc2c(cc(C(=O)NC3(c4ccc(C(C)C(=O)O)cc4F)CCOC3)n2C)c1Cl (racemic) [I-40 e55] |
| 1 to 1000 nM | CCC(C(=O)O)c1ccc(C2(NC(=O)c3cc4c(Cl)c(Cl)ccc4n3C)COC2)cc1 (racemic) [I-42 e133] |
| 1 to 1000 nM | CCC(C(=O)O)c1ccc(C2(NC(=O)c3cc4c(Cl)c(OC)ccc4n3C)COC2)cc1 (racemic) [I-43 e126] |
| 1 to 1000 nM | COc1ccc2c(cc(C(=O)NC3(c4ccc(C(C)C(=O)O)cc4F)COC3)n2C)c1Cl (racemic) [I-49 e60] |
| 1 to 1000 nM | CC(c1ccc(C2(NC(=O)c3cc4c(Cl)c(Cl)ccc4n3C)CCOC2)cc1)c1nnn[nH]1 (racemic) [I-52 e91] |
| 1 to 1000 nM | COc1cc2c(cc(C(=O)NC3(c4ccc(C(C)(C)C(=O)O)cc4F)CCOC3)n2C)c(Cl)c1Cl (racemic) [I-53 e80] |
| 1 to 1000 nM | Cn1c(C(=O)NC2(c3ccc(C(C)(C)C(=O)O)cc3F)CCOC2)cc2c(Cl)c(Cl)ccc21 (racemic) [I-54 e79] |
| 1 to 1000 nM | COc1cc2c(cc(C(=O)NC3(c4ccc(C(C)C(=O)O)cc4F)CCOC3)n2C)c(Cl)c1Cl (racemic) [I-55 e54] |
| 1 to 1000 nM | CC(C(=O)O)c1ccc(C2(NC(=O)c3cc4c(Cl)c(Cl)ccc4n3C)CCOC2)c(F)c1 (racemic) [I-57 e53] |
| 1 to 1000 nM | COc1ccc2c(cc(C(=O)NC3(c4ccc(C5(C(=O)O)CC5)cc4)CCOC3)n2C)c1Cl (racemic) [I-58 e70] |
| 1 to 1000 nM | Cn1c(C(=O)NC2(c3ccc(C4(C(=O)O)CC4)cc3)CCOC2)cc2c(Cl)c(Cl)ccc21 (racemic) [I-59 e38] |
| 1 to 1000 nM | COc1ccc2c(cc(C(=O)NC3(c4ccc(C(C)C(=O)O)cc4)CCOC3)n2C)c1Cl (racemic) [I-64 e57] |
| 1 to 1000 nM | COc1ccc2c(cc(C(=O)NC3(c4ccc(C(C)C(=O)O)cc4)COC3)n2C)c1Cl (racemic) [I-67 e59] |
| 1 to 1000 nM | CC(C(=O)O)c1ccc(C2(NC(=O)c3cc4c(Cl)c(Cl)ccc4n3C)COC2)cc1 (racemic) [I-68 e58] |
| 1000 to 5000 nM | Cn1c(C(=O)NC2(c3ccc(CC(=O)O)cc3C#N)CCOC2)cc2c(Cl)c(Cl)ccc21 (racemic) [I-71 e158, (±)-2-[3-Cyano-4-[3-[(4,5-dichloro-1-methyl-indole-2-carbonyl)amino]tetrahydro-furan-3-yl]phenyl]acetic acid] |
| 1 to 1000 nM | CCC(C(=O)O)c1ccc(C2(NC(=O)c3cc4c(Cl)c(Cl)ccc4n3C)CCOC2)cc1 (racemic) [I-72 e56] |
| 1000 to 5000 nM | Cn1c(C(=O)NC2(c3ccc(C(=O)O)nc3)CCOC2)cc2c(Cl)c(Cl)ccc21 (racemic) [I-73 e28] |
| 1 to 1000 nM | Cn1c(C(=O)NC2(c3ccc(C(=O)O)cn3)CCOC2)cc2c(Cl)c(Cl)ccc21 (racemic) [I-74 e27] |
| 1 to 1000 nM | COc1ccc2c(cc(C(=O)NC3(c4ccc(C(C)(C)C(=O)O)cc4)CCOC3)n2C)c1Cl (racemic) [I-77 e63] |
| 1 to 1000 nM | COc1ccc2c(cc(C(=O)NC3(c4ccc(CC(=O)O)cc4)CCOC3)n2C)c1Cl (racemic) [I-78 e40] |
| 1 to 1000 nM | Cn1c(C(=O)NC2(c3ccc(C(=O)O)cc3)CCOC2)cc2c(Cl)c(Cl)c(OCC3COC3)cc21 (racemic) [I-80 e103] |
| 1 to 1000 nM | Cn1c(C(=O)NC2(c3ccc(C(=O)O)cc3)CCOC2)cc2c(Cl)c(Cl)c(OCc3ncc[nH]3)cc21 (racemic) [I-81 e105] |
| 1 to 1000 nM | Cn1c(C(=O)NC2(c3ccc(C(C)(C)C(=O)O)cc3)CCOC2)cc2c(Cl)c(Cl)ccc21 (racemic) [I-87 e37] |
| 1000 to 5000 nM | CCc1cc(C2(NC(=O)c3cc4c(Cl)c(Cl)ccc4n3C)CCOC2)ccc1C(=O)O (racemic) [I-88 e156, (±)-4-[3-[(4,5-Dichloro-1-methyl-indole-2-carbonyl)amino]tetrahydro-furan-3-yl]-2-ethyl-benzoic acid] |
| 1 to 1000 nM | Cn1c(C(=O)NC2(c3ccc(C(=O)O)cc3)CCOC2)cc2c(Cl)c(Cl)c(OCC3CCOC3)cc21 (racemic) [I-92 e101] |
